In US9919998B2, “Antibacterial agents: Nα-aroyl-N-aryl-phenylalaninamides” (priority 2014, dated 2018):
pIC50: −log10 of the molar value. Values after ≈ are worked out from the molar mass of the structure shown. Values joined by “and” are separate entries in the source; they are usually repeats but may differ in a detail not shown here. Identical values can stand only once. Like-named read-outs stand apart in the source and are kept apart here.

Assays:
[1] = molecular target: Mycobacterium tuberculosis RNA polymerase (Mycobacterium tuberculosis, UniProt P9WGY7+P9WGY9); assay: Run-off transcription assay with Mycobacterium tuberculosis RNA polymerase (radiochemical); type: biochemical
Mycobacterium tuberculosis RNA polymerase, sequence (P9WGZ1 whole entry, the tested form may be a part): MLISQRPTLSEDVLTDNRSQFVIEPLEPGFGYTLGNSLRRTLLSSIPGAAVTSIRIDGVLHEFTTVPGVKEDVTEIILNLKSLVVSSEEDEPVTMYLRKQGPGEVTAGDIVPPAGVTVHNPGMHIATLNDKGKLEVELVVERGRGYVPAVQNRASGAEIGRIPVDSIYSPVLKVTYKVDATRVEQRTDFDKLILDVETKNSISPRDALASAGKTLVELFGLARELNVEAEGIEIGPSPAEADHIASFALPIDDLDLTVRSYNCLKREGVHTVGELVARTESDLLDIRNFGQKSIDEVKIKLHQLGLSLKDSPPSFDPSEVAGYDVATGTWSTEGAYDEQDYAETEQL
Mycobacterium tuberculosis RNA polymerase, sequence (P9WGY5 whole entry, further chain, the tested form may be a part): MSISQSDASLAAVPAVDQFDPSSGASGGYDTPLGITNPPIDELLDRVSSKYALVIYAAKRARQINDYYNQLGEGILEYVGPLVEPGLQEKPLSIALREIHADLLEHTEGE
Mycobacterium tuberculosis RNA polymerase, sequence (P9WGY9 whole entry, the tested form may be a part): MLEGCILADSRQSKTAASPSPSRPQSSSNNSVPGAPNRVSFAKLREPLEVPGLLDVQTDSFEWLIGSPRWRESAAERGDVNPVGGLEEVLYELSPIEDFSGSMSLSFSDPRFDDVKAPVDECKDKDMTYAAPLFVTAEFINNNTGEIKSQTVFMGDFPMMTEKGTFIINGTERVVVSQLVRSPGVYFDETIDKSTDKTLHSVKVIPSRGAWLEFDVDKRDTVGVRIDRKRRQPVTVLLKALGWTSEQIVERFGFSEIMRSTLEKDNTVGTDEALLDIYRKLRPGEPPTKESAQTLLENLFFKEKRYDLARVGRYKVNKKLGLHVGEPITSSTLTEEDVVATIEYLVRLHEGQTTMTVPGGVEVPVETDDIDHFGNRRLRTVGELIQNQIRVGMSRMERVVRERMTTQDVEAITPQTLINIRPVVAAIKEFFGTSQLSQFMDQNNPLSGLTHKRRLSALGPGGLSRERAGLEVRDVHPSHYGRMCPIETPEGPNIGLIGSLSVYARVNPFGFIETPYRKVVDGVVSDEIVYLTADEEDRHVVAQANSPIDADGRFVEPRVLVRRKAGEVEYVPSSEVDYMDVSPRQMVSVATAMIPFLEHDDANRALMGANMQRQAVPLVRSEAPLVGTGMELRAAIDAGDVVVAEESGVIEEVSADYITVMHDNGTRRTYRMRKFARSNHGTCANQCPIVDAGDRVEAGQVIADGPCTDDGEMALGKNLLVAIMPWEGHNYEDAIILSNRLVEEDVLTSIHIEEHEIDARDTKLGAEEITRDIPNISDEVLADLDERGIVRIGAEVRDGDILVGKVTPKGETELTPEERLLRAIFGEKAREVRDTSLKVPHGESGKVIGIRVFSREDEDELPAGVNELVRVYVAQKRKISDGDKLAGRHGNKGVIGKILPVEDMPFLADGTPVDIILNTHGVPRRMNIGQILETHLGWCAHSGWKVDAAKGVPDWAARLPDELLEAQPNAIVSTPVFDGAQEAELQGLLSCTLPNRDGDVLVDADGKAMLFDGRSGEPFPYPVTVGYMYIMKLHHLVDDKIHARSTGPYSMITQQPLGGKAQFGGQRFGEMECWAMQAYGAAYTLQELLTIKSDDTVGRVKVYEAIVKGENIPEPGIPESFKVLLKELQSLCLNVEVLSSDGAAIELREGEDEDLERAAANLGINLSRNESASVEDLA
Mycobacterium tuberculosis RNA polymerase, sequence (P9WGI1 whole entry, further chain, the tested form may be a part): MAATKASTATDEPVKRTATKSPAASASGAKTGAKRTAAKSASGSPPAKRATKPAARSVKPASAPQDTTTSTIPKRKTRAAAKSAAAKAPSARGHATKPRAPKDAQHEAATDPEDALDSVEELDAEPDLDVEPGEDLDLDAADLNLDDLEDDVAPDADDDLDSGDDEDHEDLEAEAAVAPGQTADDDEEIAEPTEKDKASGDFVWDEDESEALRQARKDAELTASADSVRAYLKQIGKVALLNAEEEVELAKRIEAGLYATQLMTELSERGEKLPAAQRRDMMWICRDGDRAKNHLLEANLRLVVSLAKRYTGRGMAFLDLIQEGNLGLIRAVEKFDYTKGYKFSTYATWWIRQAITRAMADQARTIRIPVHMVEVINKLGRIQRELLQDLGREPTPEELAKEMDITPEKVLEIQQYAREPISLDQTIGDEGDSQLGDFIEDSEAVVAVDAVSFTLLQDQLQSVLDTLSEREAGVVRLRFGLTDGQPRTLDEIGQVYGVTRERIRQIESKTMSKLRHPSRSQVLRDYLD
Mycobacterium tuberculosis RNA polymerase, sequence (P9WGY7 whole entry, the tested form may be a part): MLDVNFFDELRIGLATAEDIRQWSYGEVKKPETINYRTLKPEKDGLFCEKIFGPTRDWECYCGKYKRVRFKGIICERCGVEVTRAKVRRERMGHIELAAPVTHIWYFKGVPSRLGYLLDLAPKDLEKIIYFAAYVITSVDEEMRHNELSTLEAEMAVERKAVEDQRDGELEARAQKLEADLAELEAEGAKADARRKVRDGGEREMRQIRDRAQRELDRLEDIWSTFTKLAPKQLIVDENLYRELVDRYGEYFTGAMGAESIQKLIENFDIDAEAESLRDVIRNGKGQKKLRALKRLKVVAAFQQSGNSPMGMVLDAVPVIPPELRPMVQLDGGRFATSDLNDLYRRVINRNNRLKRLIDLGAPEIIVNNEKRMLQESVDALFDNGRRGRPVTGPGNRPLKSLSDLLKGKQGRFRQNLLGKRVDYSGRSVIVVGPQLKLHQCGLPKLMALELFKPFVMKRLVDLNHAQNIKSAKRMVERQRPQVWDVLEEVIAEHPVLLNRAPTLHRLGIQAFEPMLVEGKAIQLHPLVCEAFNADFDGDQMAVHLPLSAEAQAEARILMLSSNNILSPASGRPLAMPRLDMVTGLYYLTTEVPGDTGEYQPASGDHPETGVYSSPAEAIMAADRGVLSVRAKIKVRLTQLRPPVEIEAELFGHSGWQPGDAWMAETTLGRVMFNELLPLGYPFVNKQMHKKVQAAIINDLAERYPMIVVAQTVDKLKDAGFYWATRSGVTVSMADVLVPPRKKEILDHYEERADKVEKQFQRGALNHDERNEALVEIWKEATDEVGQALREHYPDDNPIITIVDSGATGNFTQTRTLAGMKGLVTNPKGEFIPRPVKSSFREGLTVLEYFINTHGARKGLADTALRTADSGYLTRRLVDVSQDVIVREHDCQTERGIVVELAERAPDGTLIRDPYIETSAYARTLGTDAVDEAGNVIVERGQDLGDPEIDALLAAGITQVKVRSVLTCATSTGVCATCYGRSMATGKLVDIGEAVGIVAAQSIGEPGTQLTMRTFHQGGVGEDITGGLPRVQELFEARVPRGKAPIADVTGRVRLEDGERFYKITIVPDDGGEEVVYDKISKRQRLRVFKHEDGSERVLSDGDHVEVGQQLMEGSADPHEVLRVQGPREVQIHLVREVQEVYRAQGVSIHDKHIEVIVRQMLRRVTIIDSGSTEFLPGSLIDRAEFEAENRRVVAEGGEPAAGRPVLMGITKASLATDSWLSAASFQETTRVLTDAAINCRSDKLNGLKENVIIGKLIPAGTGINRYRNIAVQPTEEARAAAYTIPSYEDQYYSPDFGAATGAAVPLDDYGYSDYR
Procedure: Run-off transcription assays with Mycobacterium tuberculosis RNA polymerase were performed using reaction mixtures containing (10 μl): 0-100 μM test compound, 75 nM Mycobacterium tuberculosis RNA polymerase core enzyme, 300 nM Mycobacterium tuberculosis σ^A, 20 nM 130 bp DNA fragment containing positions −100 to −1 of the bacteriophage […] N25 promoter followed by positions +1 to +30 of the lacUV5-15 promoter of [Mukhopadhyay, J., Kapanidis, A., Mekler, V., Kortkhonjia, E., Ebright, Y., Ebright, R. (2001) Cell 106, 453-463], 25 nM [alpha-^32P]UTP (600 Bq/pmol) for an initial 2 min at 37° C. and 100 μM [alpha-^32P]UTP (6 Bq/pmol) for a subsequent 5 min at 37° C., 100 μM ATP, 100 μM GTP, 100 μM UTP, 100 μM CTP, 40 mM Tris-HCl, pH 8.0, 80 mM NaCl, 5 mM MgCl2, 2.5 mM DTT, and 12.7% glycerol. Reactions were terminated by addition of […] 80% formamide, 10 mM EDTA, 0.04% bromophenol blue, and 0.04% xylene cyanol, followed by heating for 5 min at 90° C. Reaction products were resolved by 15% urea-PAGE, and quantified using a storage-phosphor scanner.

[2] = system: Mycobacterium tuberculosis H37Rv; assay: Microplate Alamar Blue assay (MABA) MIC, M. tuberculosis; type: cell-based
Description: (§1) Minimal inhibitory concentrations (MICs) in Mycobacterium tuberculosis H37Rv and Mycobacterium avium ATCC 25291 were quantified using microplate Alamar Blue assays as described (MABA; [Collins, L. & Franzblau, S. (1997) Microplate Alamar Blue assay versus BACTEC 460 system for high-throughput screening of compounds against Mycobacterium tuberculosis and Mycobacterium avium. Antimicrob. Agents Chemother. 41, 1004-1009]).

[3] = system: Mycobacterium smegmatis ATCC 19420; assay: Broth microdilution MIC, M. smegmatis; type: cell-based; conditions: Mycolicibacterium smegmatis
Description: (§2) MICs in Mycobacterium smegmatis ATCC 19420 and Mycobacterium smegmatis ATCC 19420 derivatives were quantified using broth microdilution assays as described [Clinical and Laboratory Standards Institute (CLSI/NCCLS) (2009) Methods for Dilution Antimicrobial Susceptibility Tests for Bacteria That Grow Aerobically; Approved Standard, Eighth Edition. CLIS Document M07-A8 (CLIS, Wayne Pa.)].

[4] = system: Vero E6 ATCC CRL1586 cells; assay: Mammalian-cell cytotoxicity, minimal cytotoxic concentration (CellTiter96); type: cell-based
Procedure: Minimal cytotoxic concentrations (MCCs) against mammalian cells in culture were determined using Vero E6 ATCC CRL1586 cells and the CellTiter96 assay kit (Promega, Inc.). […]

[5] = system: Mycobacterium avium ATCC 25291; assay: Microplate Alamar Blue assay (MABA) MIC, M. avium; type: cell-based; conditions: ATCC25291, M. avium ATCC 25291
Description: as §1

[6] = system: rifampin-resistant mutants, derivatives of M. smegmatis ATCC19420; assay: MICs in rifampin-resistant mutants (cross-resistance levels); type: cell-based, Mycobacterium smegmatis
Description: as §2

[7] = Inhibition of mycobacterial RNA polymerase (IC50s), radiochemical transcription assays, M. tuberculosis RNA polymerase
[8] = MABA-MIC assays, read-out: Inhibition of mycobacterial growth in culture (MICs)
[9] = ATCC19420, broth microdilution assays, M. smegmatis ATCC19420, read-out: Inhibition of mycobacterial growth in culture (MICs)
[10] = IC50 Mycobacterium tuberculosis RNA polymerase
[11] = read-out: MIC Mycobacterium tuberculosis H37Rv
[12] = ATCC19420, M. smegmatis ATCC 19420, read-out: MIC Mycobacterium smegmatis ATCC 19420

| SMILES | pIC50 ([1]; radiochemical transcription assays, M. tuberculosis RNA polymerase, read-out: Inhibition of mycobacterial RNA polymerase (IC50s)) | pIC50 [1, 7] | MIC [2, 8] [µg/mL] | MIC [3, 9] [µg/mL] | pIC50 [1, 10] | MIC [2, 11] [µg/mL] | MIC [3, 12] [µg/mL] | MCC mammalian cells Vero E6 ATCC CRL1586 [4] [µg/mL] | MIC [5] [µg/mL] | cross-resistance of rifampin-resistant mutants to the compound [6] |
| --- | --- | --- | --- | --- | --- | --- | --- | --- | --- | --- |
| O=C(Nc1ccccn1)[C@H](Cc1ccccc1)Nc1ccccc1 | ≤ 7.00 and ~6.00 |  |  |  |  |  |  |  |  |  |
| Cc1ccccc1NC(=O)[C@@H](Cc1ccccc1)NC(=O)c1ccccc1 [AAP1a, Nα-benzoyl-N-(2-methylphenyl)-D-phenylalaninamide] |  | 6.89 | 3.13 (≈ 8.73 µM) | 0.2 (≈ 0.558 µM) |  |  |  |  |  |  |
| Cc1ccccc1NC(=O)[C@H](Cc1ccccc1)NC(=O)c1ccccc1 [AAP1b, Nα-benzoyl-N-(2-methylphenyl)-L-phenylalaninamide] |  | 4.92 | > 50 | 1.56 (≈ 4.35 µM) |  |  |  |  |  |  |
| Cc1ccc(NC(=O)C(Cc2ccccc2)NC(=O)c2ccco2)cc1 (centres unmarked) [AAP2] |  | 5.28 | 50 (≈ 144 µM) |  |  |  |  |  |  |  |
| Cc1ccccc1NC(=O)C(Cc1cccc(O)c1)NC(=O)c1ccccc1 (centres unmarked) [I-12] |  |  |  |  | 5.46 | > 50 | 3.12 (≈ 8.35 µM) | >100 |  |  |
| CCCOc1ccccc1NC(=O)C(Cc1ccccc1)NC(=O)c1ccccc1 (centres unmarked) [I-39] |  |  |  |  |  | 6.25 (≈ 15.5 µM) | 0.78 (≈ 1.94 µM) | 20 | > 50 | No rifampin-resistant mutant was found to exhibit cross-resistance |
| Cc1ccc(F)cc1NC(=O)C(Cc1ccccc1)NC(=O)c1ccccc1 (centres unmarked) [I-75] |  |  |  |  | 6.00 | 1.56 (≈ 4.14 µM) | 0.195 (≈ 0.518 µM) | 4 | 1.56 (≈ 4.14 µM) |  |
| Cc1ccccc1NC(=O)C(Cc1ccccc1)NC(=O)c1ccccc1Cl (centres unmarked) [I-91] |  |  |  |  |  | > 50 | 0.39 (≈ 0.993 µM) | 19 | > 50 | No rifampin-resistant mutant was found to exhibit cross-resistance |
| Cc1ccccc1NC(=O)C(Cc1ccccc1)NC(=O)c1ccccc1C (centres unmarked) [I-112] |  |  |  |  |  | > 50 | 0.39 (≈ 1.05 µM) | 13 | > 50 | No rifampin-resistant mutant was found to exhibit cross-resistance |
| CCc1ccccc1NC(=O)C(Cc1ccccc1)NC(=O)c1ccccc1 (centres unmarked) [I-115] |  |  |  |  |  | > 50 | 0.39 (≈ 1.05 µM) | 37 | > 50 | No rifampin-resistant mutant was found to exhibit cross-resistance |
| Cc1c(NC(=O)C(Cc2ccccc2)NC(=O)c2ccccc2)cccc1C(F)(F)F (centres unmarked) [I-160] |  |  |  |  |  | > 50 | 3.12 (≈ 7.33 µM) | 21 | > 50 | No rifampin-resistant mutant was found to exhibit cross-resistance |
| O=C(NC(Cc1ccccc1)C(=O)Nc1ccccc1N1CCOCC1)c1ccccc1 (centres unmarked) [I-181] |  |  |  |  | 6.40 | 0.78 (≈ 1.82 µM) | 0.073 (≈ 0.17 µM) | >100 | 6.25 (≈ 14.6 µM) |  |
| Cc1ncccc1NC(=O)C(Cc1ccccc1)NC(=O)c1ccccc1 (centres unmarked) [II-5] |  |  |  |  |  | 50 (≈ 139 µM) | 3.12 (≈ 8.68 µM) | >36 | > 50 | No rifampin-resistant mutant was found to exhibit cross-resistance |
